Source: patent US8940909B2, “Indicator platform” (Biosynth AG, priority 2009, dated 2015)
“Also recorded” adds a separate entry of the source.

How the values were obtained:
[1] = tested on: beta-galactosidase positive Eschericha coli (NM1); experiment: IO staining of bacterial colonies on Nutrient Agar (color, fluorescence, localization, growth); for C: Color of colonies (strength): key: −: absent; +/−: weak; +: strong; ++: very strong; for F: Fluorescence of colonies (strength): key: −: absent; +/−: weak; +: strong; ++: very strong; for G: Growth of colonies: key: −: absent; +/−: weak; +: strong; ++: very strong; for L: Localization of stain on colonies: key: −: absent; +/−: weak; +: strong; ++: very strong; assay type: cell-based, E. coli; details: 150 mg/l substrate and 100 mg/l IPTG; for F: Fluorescence of colonies (colour) / G: Growth of colonies / L: Localization of stain on colonies / F: Fluorescence of colonies (strength): 24 h; for F: Fluorescence of colonies (colour) / F: Fluorescence of colonies (strength): 366 nm UV; for C: Color of colonies (colour of stain) / C: Color of colonies (strength): 24 h on Nutrient Agar; for G: Growth of colonies / L: Localization of stain on colonies / F: Fluorescence of colonies (strength) / C: Color of colonies (strength): E. coli
Procedure: (§1) Nutrient Agar (5 g/l peptone, 5 g/l NaCl, 2 g/l yeast extract, 1 g/l beef extract, 13 g/l agar, pH 7.4) was autoclaved and allowed to cool to 50° C. Then indicators were added to final concentrations of 150 mg/l (from a 20 mg/ml stock solution in DMF).
(§2) Optionally IPTG was added to 100 mg/l (from a 100 mg/ml stock solution in H2O) and plates were poured. Agar plates were inoculated with cultures of beta-galactosidase positive Eschericha coli (NM1) or beta-galactosidase negative Salmonella enteritidis (RKI 05/07992) (pre-grown on nutrient broth for 8-18 hours) and incubated at 37° C. Plates were inspected at 16, 20, 24 and 48 hours and pictures were recorded at 18, 24, and 48 hours with a Digistore 2 Image documentation system (CAMAG) under white light.
(§3) A considerable number of indicators molecules (Table IVa, IVb) and a selection of labile groups (Table IVc) were tested with various microbial species producing different biomarker enzymes (external stimuli, eS). The color of stains ranges from yellow to red.
(§4) Plating media from Example 10 were examined under 366 nm UV irradiation at 16, 20, 24 and 48 hours for fluorescence by means of Digistore 2 Image documentation system (CAMAG). Loops of bacterial cells, grown for 48 hours on Nutrient Agar plates containing 150 mg/l beta-D-galactosidase indicator and 100 mg/l IPTG, were directly streaked into wells of black clear bottom microtiter plates. Fluorescence scans were recorded on a Spectramax M5 (Molecular Devices).

[2] = tested on: beta-galactosidase negative Salmonella enteritidis (RKI 05/07992); assay type: cell-based; details: S. enteritidis (b-gal negative), 24 h, 150 mg/l substrate and 100 mg/l IPTG; for F: Fluorescence of colonies (strength): 366 nm UV; for all read-outs here: key: −: absent; +/−: weak; +: strong; ++: very strong
Procedure: as §1, §2, §3, §4

Eschericha coli (NM1) = experiment: MDAB staining of bacterial colonies with indicators I9a, I10a, I11a, I12a on Nutrient Agar, aerobic; assay type: cell-based; details: for Effectiveness of indicator system with MDAB under aerobic conditions: in combination with MDAB; for colonial morphology, aerobic conditions: Escherichia coli (b-gal +), aR MDAB, equivalents 1:1, after 48 h of incubation
Procedure: (§5) Indicators were tested with live cultures on Nutrient Agar plates. Nutrient Agar (5 g/l peptone, 5 g/l NaCl, 2 g/l yeast extract, 1 g/l beef extract, 13 g/l agar, pH 7.4) was autoclaved and allowed to cool to 50° C. Then substrates were added to final concentrations of 150 mg/l (from a 20 mg/ml stock solution in DMF). Optionally MDAB was added to a concentration of 1 mM (from a 200 mM stock solution in DMF) and plates were poured. Agar plates were inoculated with cultures of Eschericha coli (NM1) or Salmonella enteritidis (RKI 05/07992) (pre-grown on nutrient broth for 8-18 hours) and aerobically incubated at 37° C.

[3] = tested on: Salmonella enteritidis (RKI 05/07992); experiment: as above; assay type: cell-based; details: Salmonella enteritidis (b-gal −); aR MDAB, equivalents 1:1; after 48 h of incubation
Procedure: as §5

pig liver esterase = experiment: Indication of carbamate hydrolysis by esterase; assay type: biochemical; details: prolonged exposure to pig liver esterase
[4] = Indication of carbamate hydrolysis by alkali; details: short treatment with 1N aqueous NaOH solution
[5] = Water solubility and fluorescence of IO dyes from ester indicators; assay type: physicochemical; details: above pH 5
Excerpt: Upon further acidification said dyes formed orange colored non-fluorescent precipitates from aqueous solutions. […] Evidently, said dyes are highly acidic in nature and highly fluorescent in deprotonated form.

[6] = Indication of disulfide reduction by TCEP
Candida albicans = experiment: IO staining of fungal colonies; assay type: cell-based; for growth: key: −: absent; +/−: weak/variable; +: strong
Procedure: (§6) Agar base (6 g/l soytone, 1.5 g/l yeast extract, 1 g/l glucose, 10 mM sodium phosphate buffer, 13 g/l agar, pH 7.0) was autoclaved and allowed to cool to 50° C. Then 1 mM MnSO4, 1 g/l N-Acetyl-D-galactosamine and: 1-(2-benzoylphenyl)-6-chloro-1H-indol-3-yl-N-acetyl-beta-D-galactosaminide (I21g) were added to final concentrations of 0.64 mM (from a 50 mM stock solution in DMF) and plates poured. Plates were inoculated with Candida albicans, Candida krusei and Saccharomyces cerevisiae and incubated at 37° C. for 48 hours.

Candida krusei = experiment: IO staining of fungal colonies; assay type: cell-based; details: Candida krusei strain 305, galactosamidase −; agar plates containing indicator; for growth: key: −: absent; +/−: weak/variable; +: strong
Procedure: as §6

Saccharomyces cerevisiae = experiment: IO staining of fungal colonies; assay type: cell-based; details: Saccharomyces cerevisiae strain 306, galactosamidase −; agar plates containing indicator; for growth: key: −: absent; +/−: weak/variable; +: strong
Procedure: as §6

[7] = Reaction of MDAB with active signalogens (aldol donor properties); details: for Aldol product / color formed with MDAB: presence of MDAB, absence of oxygen
[8] = Candida albicans strain 304, galactosamidase +, agar plates containing indicator

| SMILES | F: Fluorescence of colonies (colour) [1] | C: Color of colonies (colour of stain) [1] | G: Growth of colonies [1] | L: Localization of stain on colonies [1] | F: Fluorescence of colonies (strength) [1] | C: Color of colonies (strength) [1] | C: Color of colonies (strength) [2] | F: Fluorescence of colonies (strength) [2] | Effectiveness of indicator system with MDAB under aerobic conditions (Eschericha coli (NM1)) | colonial morphology, aerobic conditions [3] | further results |
| --- | --- | --- | --- | --- | --- | --- | --- | --- | --- | --- | --- |
| COC(=O)c1ccccc1-n1cc(O[C@@H]2O[C@H](CO)[C@H](O)[C@H](O)[C@H]2O)c2ccc(Cl)cc21 [Indicator I11a, 6-Chloro-1-[2-(methoxycarbonyl)phenyl]-1H-indol-3-yl-beta-D-galactopyranoside] | green | yellow-green | + | − | + | + | − | − | effective | Cream colored colonies |  |
| CCNC(=O)Oc1cn(-c2ccccc2C(=O)c2ccccc2)c2ccccc12 [Indicator I32, 1-(2-Benzoylphenyl)-1H-indol-3-yl ethyl carbamate] |  |  |  |  |  |  |  |  |  |  | Signal on carbamate hydrolysis by esterase (pig liver esterase): yellow precipitate; Signal on alkaline carbamate hydrolysis [4]: yellow precipitate |
| O=C1c2ccccc2-n2c1c(O)c1ccccc12 [IO10, 11-Hydroxy-10H-indolo[1,2-a]indol-10-one] |  |  |  |  |  |  |  |  |  |  | Solubility in water [5]: freely soluble; also recorded: readily water-soluble |
| CC(=O)c1ccccc1-n1cc(SSc2cn(-c3ccccc3C(C)=O)c3ccccc23)c2ccccc21 [Indicator I33, Bis[1-(2-acetylphenyl)-1H-indol-3-yl]-disulfane] |  |  |  |  |  |  |  |  |  |  | Signal on disulfide reduction, alkaline conditions ([6]; alkaline conditions (1 N aqueous sodium hydroxide)): the solution turned yellow; Signal on disulfide reduction, neutral conditions ([6]; neutral conditions): no detectable signal |
| COC(=O)c1ccccc1-n1cc(O[C@@H]2O[C@H](CO)[C@H](O)[C@H](O)[C@H]2O)c2ccccc21 [Indicator I10a, 1-[2-(Methoxycarbonyl)phenyl]-1H-indol-3-yl-beta-D-galactopyranoside] | green | yellow-green | + | − | + | + | − | − | effective | Cream colored colonies |  |
| CC(=O)N[C@H]1[C@H](Oc2cn(-c3ccccc3C(=O)c3ccccc3)c3cc(Cl)ccc23)O[C@H](CO)[C@H](O)[C@@H]1O [Indicator I21g, 1-(2-Benzoylphenyl)-6-chloro-1H-indol-3-yl-N-acetyl-beta-D-galactosaminide] |  |  |  |  |  |  |  |  |  |  | Color (Candida albicans; [8]): Yellow; Growth (Candida albicans; [8]): +/−; Color of fungal colonies producing matching external stimulus (Candida albicans; D-galactosamidase biomarker of Candida albicans): bright yellow; Color (Candida krusei): Cream; Growth (Candida krusei): +/−; Color (Saccharomyces cerevisiae): Cream; Growth (Saccharomyces cerevisiae): +/− |
| OC[C@H]1O[C@@H](Oc2cn(-c3ccccc3)c3cc(Cl)ccc23)[C@H](O)[C@@H](O)[C@H]1O [Indicator I9a, 6-Chloro-1-phenyl-1H-indol-3-yl-beta-D-galactopyranoside] |  |  |  |  |  |  |  |  | effective | Cream colored colonies | colonial morphology, aerobic conditions (Eschericha coli (NM1)): Red colored colonies |
| COC(=O)c1ccccc1-n1cc(O[C@@H]2O[C@H](CO)[C@H](O)[C@H](O)[C@H]2O)c2c(Cl)c(Br)ccc21 [Indicator I12a, 5-Bromo-4-chloro-1-[2-(methoxycarbonyl)phenyl]-1H-indol-3-yl-beta-D-galactopyranoside] | green | yellow-green | + | − | +/− | +/− | − | − | effective | Cream colored colonies | colonial morphology, aerobic conditions (Eschericha coli (NM1)): Brown colored colonies |
| Sc1c[nH]c2ccccc12 [aS7, 1H-Indol-3-thiol] |  |  |  |  |  |  |  |  |  |  | Aldol product / color formed with MDAB [7]: the expected violet color appeared only under strongly acidic conditions; Aldol product / color formed with MDAB ([7]; listed as 3-mercaptoindole): did produce the characteristic pink dye (BI7) under strongly acidic conditions |
| Oc1c[nH]c2ccc(Br)c(Cl)c12 [aS4, 5-Bromo-4-chloro-1H-indol-3-ol] |  |  |  |  |  |  |  |  |  |  | Efficiency as aldol donor with MDAB ([7]; compared with 6-chloro-1H-indol-3-ol (aS3)): far more effective |
